From ChEMBL document CHEMBL5131492, “Harringtonine Ester Derivatives with Enhanced Antiproliferative Activities against HL-60 and HeLa Cells” (J Nat Prod, 2022)

Legend:
[1] = system: HeLa; experiment: Antiproliferative activity against human HeLa cells assessed as inhibition of cell growth measured after 68 hrs by MTS assay; type: functional, cell-based
[2] = system: HL-60; experiment: Antiproliferative activity against human HL-60 cells assessed as inhibition of cell growth measured after 68 hrs by MTS assay; type: functional, cell-based; conditions: HL-60, 68 h

Row | SMILES | IC50 [1] | IC50 [2]
1 | COC1=C[C@]23CCCN2CCc2cc4c(cc2[C@@H]3[C@@H]1OC(=O)[C@@](O)(CCC(C)(C)O)CC(=O)OCC(C)C)OCO4 | 23800 nM | 119 nM
2 | CCCCCCCCOC(=O)C[C@](O)(CCC(C)(C)O)C(=O)O[C@@H]1C(OC)=C[C@]23CCCN2CCc2cc4c(cc2[C@H]13)OCO4 | 2000 nM | 11.8 nM
3 | COC1=C[C@]23CCCN2CCc2cc4c(cc2[C@@H]3[C@@H]1OC(=O)[C@@](O)(CCC(C)(C)O)CC(=O)OC(C)C)OCO4 | 60600 nM | 583 nM
4 | CCCCOC(=O)C[C@](O)(CCC(C)(C)O)C(=O)O[C@@H]1C(OC)=C[C@]23CCCN2CCc2cc4c(cc2[C@H]13)OCO4 | 10800 nM | 42.4 nM
5 | CCCOC(=O)C[C@](O)(CCC(C)(C)O)C(=O)O[C@@H]1C(OC)=C[C@]23CCCN2CCc2cc4c(cc2[C@H]13)OCO4 | 15800 nM | 104 nM
6 | CCC(C)OC(=O)C[C@](O)(CCC(C)(C)O)C(=O)O[C@@H]1C(OC)=C[C@]23CCCN2CCc2cc4c(cc2[C@H]13)OCO4 (mixture of isomers) | 97900 nM | 499 nM
7 | COC(=O)C[C@](O)(CCC(C)(C)O)C(=O)O[C@@H]1C(OC)=C[C@]23CCCN2CCc2cc4c(cc2[C@H]13)OCO4 [HARRINGTONINE] | 4000 nM | 50.5 nM
8 | COC(=O)C[C@](O)(CCCC(C)(C)O)C(=O)O[C@@H]1C(OC)=C[C@]23CCCN2CCc2cc4c(cc2[C@H]13)OCO4 [OMACETAXINE MEPESUCCINATE] | 1700 nM | 

Second part, the compound after the results:

Row | IC50 [1] | IC50 [2] | SMILES
9 | > 100000 nM | > 100000 nM | COC1=C[C@]23CCCN2CCc2cc4c(cc2[C@@H]3[C@@H]1OC(=O)[C@@](O)(CCC(C)(C)O)CC(=O)O)OCO4
10 | 6000 nM | 22.7 nM | CCCCCOC(=O)C[C@](O)(CCC(C)(C)O)C(=O)O[C@@H]1C(OC)=C[C@]23CCCN2CCc2cc4c(cc2[C@H]13)OCO4
11 | 400 nM | 9.4 nM | CCCCCCCOC(=O)C[C@](O)(CCC(C)(C)O)C(=O)O[C@@H]1C(OC)=C[C@]23CCCN2CCc2cc4c(cc2[C@H]13)OCO4
12 | 24200 nM | 186 nM | CCOC(=O)C[C@](O)(CCC(C)(C)O)C(=O)O[C@@H]1C(OC)=C[C@]23CCCN2CCc2cc4c(cc2[C@H]13)OCO4
13 | 1900 nM | 9.6 nM | CCCCCCOC(=O)C[C@](O)(CCC(C)(C)O)C(=O)O[C@@H]1C(OC)=C[C@]23CCCN2CCc2cc4c(cc2[C@H]13)OCO4
14 | > 100000 nM | 6200 nM | COC1=C[C@]23CCCN2CCc2cc4c(cc2[C@@H]3[C@@H]1OC(=O)[C@@](O)(CCC(C)(C)O)CC(=O)OC(C)(C)C)OCO4
